The values below are quoted from earlier work in paper PMC9465641 (Frontiers in Pharmacology, 2022).

On the set-up of this data set: method as in Wang et al., 2021; Chen et al., 2022. The note with it: range reported previously; ref Wang et al., 2021; Chen et al., 2022; cited from earlier work.

As for polymyxin B, the CL was 1.59 to 2.86 L/h.
